Consider ten molecules from publication PMC12162926, “A novel strategy for identifying hepatotoxic constituents in traditional Chinese medicine using dose-normalized intracellular accumulation as a cytotoxicity indicator: a case study of Jinlingzi San” (Frontiers in Pharmacology, 2025).

Series [1] relates to L-02 cells. As to the kind of experiment: Intracellular identification of L-02 cell-uptake components by LC–MS/MS. In kind it is in vitro ADME, human. The conditions noted are these: L-02 exposed to JLZS-containing medium 6.5 mg/mL for 2 h. Here is the method: The powder of 25 g FT and 25 g RC was evenly blended and then refluxed twice with six-fold 50% ethanol (1: 6, w/v) for 1 h; the collected filtrate was evaporated to dryness and further dissolved in DMSO, after filtering using the 0.22-µm cellulose acetate membrane. JLZS-containing medium (6.5 mg/mL) was freshly prepared by diluting the filtrate with RPMI-1640. Likewise, RC-containing medium was freshly prepared in the same method independently.
L-02 cells were seeded on 9-cm-diameter cell culture plates; after ∼80% confluent, the cultured cells were incubated with 6.5 mg/mL JLZS-containing medium. After 2-h exposure, L-02 cells were quickly washed free of culture medium with cold PBS (−) twice and harvested with 1 mL of 0.25% trypsin-EDTA for cell isolation. The cell suspension (∼5 × 10^6 cells) was spun down, and the cells were further washed twice in cold PBS (−). Then, 200 µL of methanol was used to lyse the collected cells with vortex mixing for 1 min. The cell lysates were centrifuged at 12,000 rpm for 4 min, and 10 μL of the centrifugal supernatant was injected into the LC–MS/MS system for identified analysis.
The LC–MS/MS system consisted of a Thermo TSQ Quantum Ultra triple-quadrupole mass spectrometer equipped with an electrospray ionization source (San Jose, CA, United States). LCquan quantitation software (version 2.5.6, Thermo Fisher Scientific, Waltham, MA, USA) was used to control the LC–MS/MS system for data acquisition and analysis. Analytes and IS separation were conducted using a Waters XTerra® MS C18 column (3.0 mm × 50 mm, 5 µm) maintained at 20 °C. By injecting 5 µL samples with a flow rate of 0.2 mL/min, chromatographic separation was achieved using a mobile phase of 0.1% formic acid–water (A) and methanol (B) via gradient elution, 0.0–2.0 min, 35%–50% B; 2.0–2.1 min, 50%–55% B; 2.1–2.5 min, 55%–60% B; 2.5–14.0 min, 60% B. The analytes and IS were detected in the ESI source by polarity switching from positive for 0.0–8.0 min to negative-ion modes for 8.5–14.0 min in a single run with multiple reaction monitoring (MRM).

In series [2] the test system is L-02 cells. As to the kind of experiment: Intracellular accumulation in L-02 cells by LC–MS/MS. In kind it is in vitro ADME, human. As to conditions: for intracellular uptake in the JLZS group compared with the RC group: L-02, JLZS 6.5 mg/mL vs RC 3.25 mg/mL; for intracellular uptake in the JLZS group compared with the RC group / Intracellular concentration: n = 6; for Intracellular concentration: L-02, JLZS extracts 6.5 mg/mL.

The test system of series [3] is L-02 cells. The experiment in a line: Cell growth inhibition assay (CCK-8). In kind it is cell-based, human. The conditions noted are these: single compounds; for IC50: Homo sapiens, L02, L-02, 24 h exposure, read-out: IC50 (cell viability); for IC50 (cell viability): L-02, 24 h exposure.
A short description of series [4]: Stability of analytes in cell lysates (LC–MS/MS method validation). In kind it is physicochemical. The conditions noted are these: n=3; for Post-preparation stability RE%: 4 ℃, 24 h at autosampler; for Short-term stability RE%: 12 h at room temperature; for Long-term stability RE%: -80℃ for a month; for Freeze-thaw stability RE%: three freeze-thaw. As for the experimental part: The stability of seven analytes including short-term stability (12 h at room temperature), post-preparation stability at 4 ℃ (24 h at autosampler), freeze-thaw stability (three freeze-thaw stability) and long-term stability (-80℃ for a month) was tested by analyzing three replicates at low and high QC levels during various sample storage and handling process.

On the set-up of series [5]: method as in Gu et al., 2021. The conditions noted are these: pharmacokinetic level, JLZS vs single herb; ref Gu et al., 2021; cited from earlier work.

By IC50 is commonly meant the concentration that gives 50% inhibition. With `COc1ccc2cc3[n+](cc2c1OC)CCc1cc2c(cc1-3)OCO2` [BER, berberine], the “detection in cell lysates” value in the series on L-02 cells [1] is given as “found in the cell lysates”. Besides, the “intracellular uptake in the JLZS group compared with the RC group” value in the series with L-02 cells [2] is “decreased significantly”. For the same molecule, the Intracellular concentration with L-02 cells [2] (time 0.25 h) worked out at 3.2 ± 0.5 ng/mL; with L-02 cells [2] (time 0.5 h), 3.7 ± 0.3 ng/mL; in the series with L-02 cells [2] (time 1 h), 5.5 ± 1.3 ng/mL; with L-02 cells [2] (time 1.5 h), 7.2 ± 2.5 ng/mL; in the series on L-02 cells [2] (time 2 h), 8.3 ± 4.0 ng/mL; with L-02 cells [2] (time 3 h), 10.1 ± 1.7 ng/mL. Further, the figures for the Intracellular concentration in the series on L-02 cells [2] (time 5 h) and in the series with L-02 cells [2] (time 8 h) were 12.3 ± 2.5 ng/mL and 15.6 ± 4.9 ng/mL, respectively. Further, the concentration for half-maximal inhibition (IC50) in the series on L-02 cells [3] is 41.2 µg/mL. The entries for the “Post-preparation stability RE%” value in series [4] (high QC level) and in series [4] (low QC level) were 3.1% and 1.8%, respectively. For the same molecule, the “Short-term stability RE%” value in series [4] (high QC level) was determined as 2.5%; in series [4] (low QC level), 5.6%. Moreover, the “Long-term stability RE%” value was 1.2% in series [4] (high QC level) and 1.8% in series [4] (low QC level). The “Freeze-thaw stability RE%” value in series [4] (high QC level) turned out to be 6.9%; in series [4] (low QC level), 5.6%.

Consider `c1c2c(cc3c1OCO3)-c1cc3ccc4c(c3c[n+]1CC2)OCO4` [COP, coptisine], for which the “detection in cell lysates” value in the series on L-02 cells [1] is “found in the cell lysates”. In addition, the “intracellular uptake in the JLZS group compared with the RC group” value with L-02 cells [2] is listed as “decreased significantly”. Also, the Intracellular concentration is reported as 38.3 ± 4.9 ng/mL with L-02 cells [2] (time 0.25 h); 44.0 ± 11.4 ng/mL with L-02 cells [2] (time 0.5 h); 67.5 ± 7.7 ng/mL in the series on L-02 cells [2] (time 1 h); 84.4 ± 21.2 ng/mL in the series on L-02 cells [2] (time 1.5 h); 98.1 ± 34.8 ng/mL in the series with L-02 cells [2] (time 2 h); 134.8 ± 24.4 ng/mL in the series with L-02 cells [2] (time 3 h). Besides, the Intracellular concentration is 197.6 ± 45.9 ng/mL with L-02 cells [2] (time 5 h) and 261.8 ± 60.2 ng/mL with L-02 cells [2] (time 8 h). Besides, in the series on L-02 cells [2] (ratio of highest intracellular accumulation versus content in JLZS extracts, L-02), the “dose-normalized intracellular accumulation (ranking)” value is reported as “the highest”. Also, in the series on L-02 cells [3], the half-maximal inhibitory concentration (IC50) was determined as 14 µg/mL. Also, the results for the “Post-preparation stability RE%” value in series [4] (high QC level) and in series [4] (low QC level) were 6.8% and -0.6%, respectively. Moreover, the “Short-term stability RE%” value in series [4] (high QC level) worked out at 6.2%; in series [4] (low QC level), 5.6%. Moreover, the “Long-term stability RE%” value in series [4] (high QC level) is 6.6%; in series [4] (low QC level), 4.0%. Further, the figures for the “Freeze-thaw stability RE%” value in series [4] (high QC level) and in series [4] (low QC level) were 5.0% and 0.7%, respectively.

With `COc1ccc2c(c1OC)CN1CCc3cc4c(cc3C1C2)OCO4` (centres unmarked) [THB, tetrahydroberberine], the “IC50 (cell viability)” value in the series with L-02 cells [3] is recorded as “not detected IC50 values within the set concentration range”. Also, the “elimination in the JLZS group compared with the single-herb group” value in series [5] is recorded as “decreased significantly”.

In the case of `COc1ccc2c(c1OC)CN(C)CCc1cc3c(cc1C(=O)C2)OCO3` [ALL, allocryptopine], in the series on L-02 cells [3], the “IC50 (cell viability)” value is recorded as “not detected IC50 values within the set concentration range”.

On to `COc1cc2c(cc1OC)[C@@H]1Cc3ccc(OC)c(OC)c3CN1CC2` [THP, tetrahydropalmatine], for which, in the series with L-02 cells [3], the “IC50 (cell viability)” value is on record as “not detected IC50 values within the set concentration range”. Besides, the “elimination in the JLZS group compared with the single-herb group” value in series [5] is given as “decreased significantly”.

Regarding `COc1cc2c(cc1O)CC[n+]1cc3c(OC)c(OC)ccc3cc1-2` [JAT, jatrorrhizine], the “detection in cell lysates” value with L-02 cells [1] was “found in the cell lysates”. Further, the Intracellular concentration with L-02 cells [2] (time 0.25 h) was 13.4 ± 0.2 ng/mL; with L-02 cells [2] (time 0.5 h), 13.8 ± 0.8 ng/mL; with L-02 cells [2] (time 1 h), 14.9 ± 0.8 ng/mL; with L-02 cells [2] (time 1.5 h) it was 15.8 ± 1.8 ng/mL; in the series with L-02 cells [2] (time 2 h), 16.3 ± 1.9 ng/mL; with L-02 cells [2] (time 3 h), 19.6 ± 1.0 ng/mL. Further, the Intracellular concentration with L-02 cells [2] (time 5 h) turned out to be 21.2 ± 3.5 ng/mL; with L-02 cells [2] (time 8 h), 26.2 ± 6.0 ng/mL. Further, the “IC50 (cell viability)” value with L-02 cells [3] was “not detected IC50 values within the set concentration range”. The “Post-preparation stability RE%” value in series [4] (high QC level) is recorded as 4.7%; in series [4] (low QC level), -0.2%. Besides, the “Short-term stability RE%” value in series [4] (high QC level) is 8.0%; in series [4] (low QC level), 5.3%. The “Long-term stability RE%” value worked out at 4.0% in series [4] (high QC level) and 1.9% in series [4] (low QC level). Moreover, the “Freeze-thaw stability RE%” value in series [4] (high QC level) was determined as 8.0%; in series [4] (low QC level), 2.9%.

With `COc1cc2c(cc1OC)[C@H]1[C@@H](C)c3ccc(OC)c(OC)c3CN1CC2` [COR, corydaline], the “IC50 (cell viability)” value in the series with L-02 cells [3] is recorded as “not detected IC50 values within the set concentration range”. Further, the “elimination in the JLZS group compared with the single-herb group” value in series [5] is given as “decreased significantly”.

Regarding `CC(=O)O[C@@H]1C[C@H](O)[C@@]23CO[C@@H](O)[C@]1(C)[C@@H]2C[C@@H](O)[C@]1(C)[C@@H]3C(=O)[C@H](OC(C)=O)[C@@]2(C)[C@H](c3ccoc3)C[C@H]3O[C@]321` [TSN, toosendanin], the “detection in cell lysates” value in the series with L-02 cells [1] is “found in the cell lysates”. Moreover, the Intracellular concentration amounted to 10.4 ± 1.1 ng/mL in the series on L-02 cells [2] (time 0.25 h); 13.6 ± 4.0 ng/mL with L-02 cells [2] (time 0.5 h); 38.5 ± 10.2 ng/mL with L-02 cells [2] (time 1 h); 32.8 ± 13.6 ng/mL with L-02 cells [2] (time 1.5 h); 20.1 ± 2.8 ng/mL in the series with L-02 cells [2] (time 2 h); 23.8 ± 4.4 ng/mL in the series with L-02 cells [2] (time 3 h). The Intracellular concentration in the series on L-02 cells [2] (time 5 h) is reported as 26.4 ± 9.2 ng/mL; with L-02 cells [2] (time 8 h), 15.5 ± 3.4 ng/mL. In addition, the “exposure time at highest intracellular concentration” value in the series with L-02 cells [2] (L-02 exposed to JLZS 6.5 mg/mL) is given as 1 h. Also, the “IC50 (cell viability)” value with L-02 cells [3] is reported as “not detected IC50 values within the set concentration range”. Further, the “Post-preparation stability RE%” value was 0.1% in series [4] (high QC level) and 7.6% in series [4] (low QC level). The “Short-term stability RE%” value in series [4] (high QC level) is listed as -0.1%; in series [4] (low QC level), 8.0%. Moreover, the entries for the “Long-term stability RE%” value in series [4] (high QC level) and in series [4] (low QC level) were 8.6% and 10.2%, respectively. For the same molecule, the “Freeze-thaw stability RE%” value in series [4] (high QC level) was -4.0%; in series [4] (low QC level) it was 6.2%. In addition, the “elimination in the JLZS group compared with the single-herb group” value in series [5] is on record as “decreased significantly”.

Consider `C[C@@H]1O[C@@H](OC[C@H]2O[C@@H](Oc3c(-c4ccc(O)c(O)c4)oc4cc(O)cc(O)c4c3=O)[C@H](O)[C@@H](O)[C@@H]2O)[C@H](O)[C@H](O)[C@H]1O` [RUT, rutin], for which the “IC50 (cell viability)” value with L-02 cells [3] is given as “not detected IC50 values within the set concentration range”.

With `CN1CCc2cc3c(cc2C(=O)Cc2ccc4c(c2C1)OCO4)OCO3` [PRO, protopine], in the series on L-02 cells [3], the “IC50 (cell viability)” value is “not detected IC50 values within the set concentration range”.
